From US20230312587A1, “PTERIDINONE COMPOUNDS AND USES THEREOF” (Vertex Pharmaceutical Incorporated, priority 2018, published 2023)
Like-named read-outs stand apart in the source and are kept apart here.

Legend:
Plk1 = Plk1 (Homo sapiens (Human), UniProt P53350); assay: PLK1 inhibition assay (radioactive-phosphate incorporation); format: biochemical; details: Ki(app), read-out: PLK1 - 33P.ENZ - CB 10 Ki
Method: Compounds were screened for their ability to inhibit Plk1 using a radioactive-phosphate incorporation assay. Assays were carried out in a mixture of 25 mM HEPES (pH 7.5), 10 mM MgCl2, 25 mM NaCl, and 2 mM DTT. Final substrate concentrations were 20 μM [γ-33P]ATP (35mCi 33P ATP/mmol ATP, Perkin Elmer/Sigma Chemicals) and 9 uM Sam68 protein. Assays were carried out at room temperature in the presence of 15 nM Plk1. An assay stock buffer solution was prepared containing all of the reagents listed above, with the exception of ATP and the test compound of interest. 0.75 μL of DMSO stock containing serial dilutions of the test compound (typically starting from a final concentration of 10 μM with 2-fold serial dilutions—final DMSO concentration 1.5%) was placed in a 384 well plate followed by addition of 25 μL [γ-33P]ATP (final concentration 20 μM). The reaction was initiated by addition of 25 μL of the assay stock buffer solution.
The reaction was stopped after 45 minutes by the addition of 25 μL 30% trichloroacetic acid (TCA) containing 10 mM cold ATP. The entire quenched reaction was transferred to a 384-well glass fiber filter plate (Millipore, Cat no. MZFBNOW50). The plate was washed with 3×5% TCA. After drying, 40 μL of Ultima Gold liquid scintillation cocktail (Perkin Elmer) was added to the well prior to scintillation counting in a PerkinElmer TopCount.
After removing mean background values for all of the data points, Ki(app) data were calculated from non-linear regression analysis of the initial rate data using the Prism software package (GraphPad Prism, GraphPad Software, San Diego California, USA).

[1] = tested on: β-catenin-TCF-mediated reporter transcription activity in Colo 205 cells; assay: Colo 205 reporter assay (TCF/LEF luciferase); format: cell-based; details: Colo 205 TCF/LEF luciferase reporter, five hours after addition of compound, read-out: TCF reporter Colo205 IC50
Method in brief: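 Luciferase signal from a TCF/LEF-driven reporter, stably integrated in Colo 205 colon cancer cells, was measured 5 h after compound addition.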

[2] = tested on: Colo205-TCF/LEF-Luciferase (Luc) tumor; assay: In vivo inhibition of TCF/LEF reporter activity in Colo-205 tumors; design: concentration or dose not given beside the values; details: TCF/LEF luciferase reporter in Colo-205 tumors, nu/nu mice, oral gavage
Method in brief: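 Female nu/nu mice carried subcutaneous Colo205-TCF/LEF-luciferase tumours (200–500 mm^3), n=4 per group. Compound was given by oral gavage in 1:3:5:1 EtOH:DMSO:PEG-400:H2O at 10 ml/kg, with vehicle as control. Luciferase activity in tumour lysates (Steady-Glo) was normalised to BCA protein.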

Plk1, sequence (P53350 whole entry, species assumed): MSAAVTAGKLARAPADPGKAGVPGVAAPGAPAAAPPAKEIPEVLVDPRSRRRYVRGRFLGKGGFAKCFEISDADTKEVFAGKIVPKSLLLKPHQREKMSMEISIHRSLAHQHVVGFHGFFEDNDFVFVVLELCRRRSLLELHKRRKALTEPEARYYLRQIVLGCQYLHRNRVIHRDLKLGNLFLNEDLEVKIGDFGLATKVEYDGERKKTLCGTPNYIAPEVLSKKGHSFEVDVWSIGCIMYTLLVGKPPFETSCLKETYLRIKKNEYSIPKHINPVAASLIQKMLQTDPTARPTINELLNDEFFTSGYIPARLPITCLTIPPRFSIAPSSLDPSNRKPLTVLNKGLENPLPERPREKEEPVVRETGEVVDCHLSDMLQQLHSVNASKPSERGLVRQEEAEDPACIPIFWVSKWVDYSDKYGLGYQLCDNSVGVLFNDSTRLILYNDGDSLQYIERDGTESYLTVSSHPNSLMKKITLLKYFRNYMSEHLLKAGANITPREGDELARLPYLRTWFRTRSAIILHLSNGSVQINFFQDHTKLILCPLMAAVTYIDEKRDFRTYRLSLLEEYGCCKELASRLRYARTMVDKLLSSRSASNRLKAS

Structure (SMILES)	Ki (Plk1)	IC50 ([1]; Homo sapiens, COLO 205, 5 h)	Percent Remaining Activity at 8 hrs after Dosing [2]	IC50 [1]
CCC[C@H]1C(=O)N(C)c2cnc(NCc3cnn(Cc4cc(F)c(F)c(F)c4)c3)nc2N1C [Compound 23, (7S)-5,8-dimethyl-7-propyl-2-(((1-(3,4,5-trifluorobenzyl)-1H-pyrazol-4-yl)methyl)amino)-7,8-dihydropteridin-6(5H)-one]	> 4000 nM	< 300 nM	–	–
CN1C(=O)C(C)(C)N(C)c2nc(NCc3cnn(Cc4cc(F)c(F)c(F)c4)c3)ncc21 [Compound 229, 5,7,7,8-tetramethyl-2-(((1-(3,4,5-trifluorobenzyl)-1H-pyrazol-4-yl)methyl)amino)-7,8-dihydropteridin-6(5H)-one]	> 4000 nM	< 300 nM	49%	–
Cc1nc(NCc2ccc(Oc3ccc(F)cc3)nc2)nc2c1NC(=O)[C@H](C)N2C [Compound 54, (7S)-2-(((6-(4-fluorophenoxy)pyridin-3-yl)methyl)amino)-4,7,8-trimethyl-7,8-dihydropteridin-6(5H)-one]	> 4000 nM	< 300 nM	–	–
CCC[C@H]1C(=O)N(C)c2cnc(NCc3cnn(Cc4ccc(F)cc4)c3)nc2N1C [Compound 24, (7S)-2-(((1-(4-fluorobenzyl)-1H-pyrazol-4-yl)methyl)amino)-5,8-dimethyl-7-propyl-7,8-dihydropteridin-6(5H)-one]	> 4000 nM	300 to 1000 nM	–	–
Cc1nc(NCc2cnn(CCC3CCCCC3)c2)nc2c1NC(=O)[C@H](C)N2C [Compound 113, (7S)-2-(((1-(2-cyclohexylethyl)-1H-pyrazol-4-yl)methyl)amino)-4,7,8-trimethyl-7,8-dihydropteridin-6(5H)-one]	> 4000 nM	< 300 nM	–	–
CCN1C(=O)[C@](C)(CC)N(CC)c2nc(NCc3cnn(Cc4ccc(F)cc4)c3)ncc21 [Compound 34, (7S)-5,7,8-triethyl-2-(((1-(4-fluorobenzyl)-1H-pyrazol-4-yl)methyl)amino)-7-methyl-7,8-dihydropteridin-6(5H)-one]	> 4000 nM	300 to 1000 nM	–	–
Cc1nc(NCc2cnn([C@H]3C[C@H](c4ccc(F)cc4)C3)c2)nc2c1NC(=O)[C@H](C)N2C [Compound 112, (7S)-2-(((trans-1-(3-(4-fluorophenyl)cyclobutyl)-1H-pyrazol-4-yl)methyl)amino)-4,7,8-trimethyl-7,8-dihydropteridin-6(5H)-one]	> 4000 nM	< 300 nM	–	–
CCN1C(=O)[C@H](CCO)N(CC)c2nc(NCc3cnn(Cc4cc(F)c(OC)c(F)c4)c3)ncc21 [Compound 48, (7S)-2-(((1-(3,5-difluoro-4-methoxybenzyl)-1H-pyrazol-4-yl)methyl)amino)-5,8-diethyl-7-(2-hydroxyethyl)-7,8-dihydropteridin-6(5H)-one]	> 4000 nM	< 300 nM	–	–
Cc1nc(N[C@H]2CC[C@H](Oc3cc(F)c(F)c(F)c3)C2)nc2c1NC(=O)[C@H](C)N2C [Compound 268, (S)-4,7,8-trimethyl-2-(((1S,3S)-3-(3,4,5-trifluorophenoxy)cyclopentyl)amino)-7,8-dihydropteridin-6(5H)-one]	> 4000 nM	–	–	300 to 1000 nM
Cc1nc(NCc2cnn(Cc3cc(F)c(F)c(F)c3)c2)nc2c1N(C)C(=O)[C@H](C)N2C [Compound 14, (7S)-4,5,7,8-tetramethyl-2-(((1-(3,4,5-trifluorobenzyl)-1H-pyrazol-4-yl)methyl)amino)-7,8-dihydropteridin-6(5H)-one]	> 4000 nM	< 300 nM	33%	–
CC[C@H]1C(=O)N(CC)c2cnc(NCc3cnn(Cc4ccc(F)cc4)c3)nc2N1C [Compound 19, (7S)-5,7-Diethyl-2-(((1-(4-fluorobenzyl)-1H-pyrazol-4-yl)methyl)amino)-8-methyl-7,8-dihydropteridin-6(5H)-one]	> 4000 nM	300 to 1000 nM	–	–
Cc1nc(NCc2cnn(Cc3ccc(F)cc3)c2)nc2c1N(C)C(=O)C1(CC1)N2C [Compound 223, 2′-(((1-(4-fluorobenzyl)-1H-pyrazol-4-yl)methyl)amino)-4′,5′,8′-trimethyl-5′,8′-dihydro-6′H-spiro[cyclopropane-1,7′-pteridin]-6′-one]	> 4000 nM	< 300 nM	39%	–
Cc1nc(N[C@@H]2CC[C@@H](Oc3cc(F)c(F)c(F)c3)C2)nc2c1NC(=O)[C@H](C)N2C [Compound 267, (S)-4,7,8-trimethyl-2-(((1R,3R)-3-(3,4,5-trifluorophenoxy)cyclopentyl)amino)-7,8-dihydropteridin-6(5H)-one]	> 4000 nM	< 300 nM	–	–
CCN1C(=O)[C@@](C)(CC)N(CC)c2nc(NCc3cnn(Cc4ccc(F)cc4)c3)ncc21 [Compound 234, (7R)-5,7,8-triethyl-2-(((1-(4-fluorobenzyl)-1H-pyrazol-4-yl)methyl)amino)-7-methyl-7,8-dihydropteridin-6(5H)-one]	> 4000 nM	–	–	300 to 1000 nM
CCN1c2nc(NCc3cnn(Cc4ccc(F)cc4)c3)ncc2N(C)C(=O)[C@@H]1C [Compound 22, (7S)-8-ethyl-2-(((1-(4-fluorobenzyl)-1H-pyrazol-4-yl)methyl)amino)-5,7-dimethyl-7,8-dihydropteridin-6(5H)-one]	> 4000 nM	< 300 nM	–	–
CCN1C(=O)[C@H](C)N(C(C)C)c2nc(NCc3cnn(Cc4cc(F)c(F)c(F)c4)c3)ncc21 [Compound 51, (7S)-5-ethyl-8-isopropyl-7-methyl-2-(((1-(3,4,5-trifluorobenzyl)-1H-pyrazol-4-yl)methyl)amino)-7,8-dihydropteridin-6(5H)-one]	> 4000 nM	< 300 nM	–	–
CC[C@H]1C(=O)N(C)c2cnc(NCc3cnn(Cc4ccc(F)cc4)c3)nc2N1C(C)C [Compound 32, (7S)-7-ethyl-2-(((1-(4-fluorobenzyl)-1H-pyrazol-4-yl)methyl)amino)-8-isopropyl-5-methyl-7,8-dihydropteridin-6(5H)-one]	> 4000 nM	300 to 1000 nM	–	–
COc1c(F)cc(Cn2cc(CNc3ncc4c(n3)N(C)[C@@H](C)C(=O)N4)cn2)cc1F [Compound 44, (7S)-2-(((1-(3,5-difluoro-4-methoxybenzyl)-1H-pyrazol-4-yl)methyl)amino)-7,8-dimethyl-7,8-dihydropteridin-6(5H)-one]	> 4000 nM	< 300 nM	–	–
C[C@H]1C(=O)Nc2cnc(NCc3cnn(Cc4cc(F)c(O)c(F)c4)c3)nc2N1C [Compound 50, (7S)-2-(((1-(3,5-difluoro-4-hydroxybenzyl)-1H-pyrazol-4-yl)methyl)amino)-7,8-dimethyl-7,8-dihydropteridin-6(5H)-one]	> 4000 nM	≥ 5000 nM	–	–
CC[C@]1(C)C(=O)N(C)c2cnc(NCc3cnn(Cc4ccc(F)cc4)c3)nc2N1C [Compound 3, (7R)-7-ethyl-2-(((1-(4-fluorobenzyl)-1H-pyrazol-4-yl)methyl)amino)-5,7,8-trimethyl-7,8-dihydropteridin-6(5H)-one]	> 4000 nM	< 300 nM	–	–
CCN1C(=O)[C@H](C)N(CC)c2nc(NCc3cnn(Cc4ccc(F)cc4)c3)ncc21 [Compound 30, (7S)-5,8-diethyl-2-(((1-(4-fluorobenzyl)-1H-pyrazol-4-yl)methyl)amino)-7-methyl-7,8-dihydropteridin-6(5H)-one]	> 4000 nM	< 300 nM	–	–
Cc1noc(C)c1Cn1cc(CNc2nc(C)c3c(n2)N(C)[C@@H](C)C(=O)N3)cn1 [Compound 138, (7S)-2-(((1-((3,5-dimethylisoxazol-4-yl)methyl)-1H-pyrazol-4-yl)methyl)amino)-4,7,8-trimethyl-7,8-dihydropteridin-6(5H)-one]	> 4000 nM	< 300 nM	–	–
